Data taken from patent US10640748B2, “Oligodendroglial cell culturing methods and in methods for treating neurodegenerative disorders by using thyroid hormones or analogues” (NeuOrphan Pty Ltd, priority 2014, dated 2020).

System: H9-derived hOPCs (Merck/Millipore)
Experiment: Microarray analysis of H9-derived hOPC mixed neural cultures treated with DITPA
Type: cell-based, human
Details: 48 hours
Protocol: H9-derived hOPCs (Merck/Millipore) were differentiated for 4 weeks and the following treatments were administered to the cells for 48 hours: Medium with 0.01% absolute ethanol control; 1 ng/mL DITPA (DITPA 1 ng/mL); 10 ng/mL DITPA (DITPA 10 ng/mL); or 100 ng/mL DITPA (DITPA 100 ng/mL). 1 μg of collected mRNA from each population was hybridized to Human HT-12 v3.0 Gene Expression BeadChip (Illumina) according to the manufacturer's instruction (For detailed procedure see Supplemental Experimental Procedures).
H9-derived commercially available human neural precursors were cultured and differentiated according to the manufacturer's protocol (Human OPC differentiation kit, Millipore). Briefly, undifferentiated cells were maintained on 4% growth factor-reduced Matrigel (BD Biosciences) for a week in manufacturer provided expansion medium then differentiated on poly-L-ornithine (10 μg/mL, Sigma-Aldrich) and mouse laminin (10 μg/mL, Life Technologies) coated plates for 4 weeks in manufacturer provided medium.
Raw signal intensity values were subjected to variance stabilization transformation including background correction, log2 transformation and variance stabilization using the lumiR package of R Bioconductor (Du et al., 2008). Since there were fewer arrays of common genes detected in DITPA 100 ng/mL compared to DITPA 1 ng/mL and 10 ng/mL versus ethanol control, all analyses were performed without DITPA 100 ng/mL. Hierarchical clustering with centroid linkage clustering was performed. ANOVA analyses of normalized probe intensity values were performed in Partek Genomic Suite (Partek). ANOVA was used to calculate the significance of variation in normalized expression values between sample-groups, and fold change of gene expression was calculated as mean ratio. Absolute fold changes of 1.5 or more were defined as differentially expressed. Gene ontology enrichment analysis was performed on the list of differentially expressed probes in Partek.

[1] = 1 and 10 ng/mL, vs ethanol control

O=C(O)CCc1cc(I)c(Oc2ccc(O)cc2)c(I)c1 [DITPA, 3,5-Diiodothyropropionic acid]
ASCL1 expression (oligodendroglial enriched transcription factor) [1]: up-regulation | CRYM (μ-crystallin) expression [1]: down-regulation | DIO3OS expression [1]: up-regulation | DIO3 expression [1]: up-regulation | MYT1 expression (oligodendroglial enriched transcription factor) [1]: up-regulation | RARA expression [1]: up-regulation | RARRES3 expression [1]: down-regulation | astrocyte and neuron enriched transcription factors regulated [1]: minimal | thrb expression [1]: up-regulation | commonly regulated genes (DITPA at 1 ng/mL and 10 ng/mL vs ethanol control): 3385 | up-regulation of metallothionein (MT1A) (upon DITPA treatment): ~8 fold | up-regulation of p53 (upon DITPA treatment): ~2 fold | up-regulation of reprimo (RPRM) (upon DITPA treatment): ~13 fold
